Structures can show the parent of a compound that is named as a salt. Where two headings read alike, the source gives them in different places.
Columns and labels:
[1] = system: NCI-H292 lung cancer cells; assay: FDA drug screening, complete media vs cholesterol-free media without statin (TABLE 1); format: cell-based, human
[2] = system: NCI-H292 lung cancer cells; assay: FDA drug screening, complete media vs cholesterol-free media with simvastatin (TABLE 2); format: cell-based, human
[3] = Complete minus Cholesterol-free, >0 enhanced anti-cancer activity, about 0 neutral, <0 antagonist
[4] = NCI-H292 cells, cholesterol-free media without statin, FDA drug library screen
[5] = NCI-H292 cells, complete media, FDA drug library screen
[6] = NCI-H292 cells, FDA library drug in cholesterol-free media with simvastatin 0.04 μM
[7] = NCI-H292 cells, FDA library drug in complete media
[8] = complete media vs cholesterol-free media + simvastatin (0.04 μM), >0 enhanced anti-cancer activity, about 0 neutral, <0 antagonist
[9] = Complete minus Cholesterol-free, greater than 0 enhanced anti-cancer activity, about 0 neutral, below 0 antagonists
[10] = NCI-H292 cells in cholesterol-free media without statin
[11] = NCI-H292 cells in complete media
[12] = NCI-H292 cells, cholesterol-free media with simvastatin 0.04 μM, cell growth value in FDA drug screen
[13] = NCI-H292 cells, complete media, cell growth value in FDA drug screen
[14] = complete media minus cholesterol-free media + simvastatin, >0 enhanced anti-cancer activity, about 0 neutral, <0 antagonist
[15] = NCI-H292 cells, cholesterol-free media without statin
[16] = complete vs cholesterol-free media, greater than 0 enhanced anti-cancer activity, about 0 neutral, below 0 antagonists
[17] = NCI-H292 cells, FDA drug library screen, cholesterol-free media with simvastatin 0.04 μM
[18] = NCI-H292 cells, FDA drug library screen, complete media
[19] = complete vs cholesterol-free media, >0 enhanced anti-cancer activity, about 0 neutral, <0 antagonist
[20] = NCI-H292 cells, drug in cholesterol-free media with simvastatin 0.04 μM
[21] = NCI-H292 cells, drug in complete media
[22] = NCI-H292 cells, cholesterol-free media with simvastatin 0.04 μM, FDA drug library screen (TABLE 2)
[23] = NCI-H292 cells, complete media, FDA drug library screen (TABLE 2)
[24] = complete media minus cholesterol-free media + simvastatin (0.04 μM), >0 enhanced anti-cancer activity, about 0 neutral, <0 antagonist

COc1ccc2cccc(CCNC(C)=O)c2c1 [Agomelatine (hydrochloride)]
Difference [1, 3]: 0.00 | Cholesterol-free [1, 4]: 0.7477 | Complete [1, 5]: 0.7483 | Cholesterol-free media + simvastatin (0.04 μM) [2, 6]: 1.126 | Complete Media [2, 7]: 0.7656 | Difference [2, 8]: −0.36

N[C@H]1CONC1=O [L-Cycloserine]
Difference [1, 9]: −0.78 | Cholesterol-free [1, 10]: 1.458 | Complete [1, 11]: 0.6746 | Cholesterol-free media + simvastatin (0.04 μM) [2, 12]: 0.815 | Complete Media [2, 13]: 0.9066 | Difference [2, 14]: 0.09

Cc1ncc([N+](=O)[O-])n1CC(O)CN1CCOCC1 (stereo not shown) [Morinidazole]
Cholesterol-free [1, 15]: 1.15 | Complete ([1]; NCI-H292 cells, complete media): 0.8164 | Difference [1, 16]: −0.33 | Cholesterol-free media + simvastatin (0.04 μM) [2, 17]: 1.535 | Complete Media [2, 18]: 1.676 | Difference [2, 14]: 0.14

N[C@@H]1CN(c2c(F)cc3c(=O)c(C(=O)O)cn([C@@H]4C[C@@H]4F)c3c2Cl)CC12CC2.O [Sitafloxacin (hydrate)]
Cholesterol-free [1, 15]: 1.147 | Complete ([1]; NCI-H292 cells, complete media): 0.7079 | Difference ([1]; complete vs cholesterol-free media, […]): −0.44 | Cholesterol-free media + simvastatin (0.04 μM) [2, 6]: 1.043 | Complete Media [2, 7]: 0.7235 | Difference ([2]; complete media vs cholesterol-free media + simvastatin (0.04 μM), […]): −0.32

CC1(C)OC[C@@H](COC(=O)CCc2ccc(OC[C@@H](O)CNCCNC(=O)N3CCOCC3)cc2)O1 [Landiolol (hydrochloride)]
Cholesterol-free [1, 15]: 1.352 | Complete ([1]; NCI-H292 cells, complete media): 0.8842 | Difference [1, 16]: −0.47 | Cholesterol-free media + simvastatin (0.04 μM) [2, 17]: 1.311 | Difference [2, 8]: −0.14

Cc1noc(NS(=O)(=O)c2ccc(N)cc2)c1C [Sulfisoxazole]
Cholesterol-free [1, 15]: 1.273 | Complete ([1]; NCI-H292 cells, complete media): 0.8703 | Difference [1, 16]: −0.40 | Cholesterol-free media + simvastatin (0.04 μM) [2, 17]: 1.12 | Complete Media [2, 18]: 1.045 | Difference [2, 8]: −0.08

Cc1cccc(Nc2ccccc2C(=O)O)c1C [Mefenamic acid]
Difference [1, 9]: −0.58 | Cholesterol-free [1, 10]: 2.136 | Complete [1, 11]: 1.551 | Cholesterol-free media + simvastatin (0.04 μM) [2, 17]: 1.014 | Complete Media [2, 18]: 0.8951 | Difference [2, 8]: −0.12

CC(=O)[C@H]1CC[C@H]2[C@@H]3C=CC4=CC(=O)CC[C@@]4(C)[C@@H]3CC[C@]12C [Dydrogesterone]
Difference [1, 9]: −0.68 | Cholesterol-free [1, 10]: 1.745 | Complete [1, 11]: 1.064 | Cholesterol-free media + simvastatin (0.04 μM) [2, 12]: 1.183 | Complete Media [2, 13]: 1.295 | Difference [2, 14]: 0.11

Clc1ccc(CCCOCCCN2CCCCC2)cc1 [Pitolisant (hydrochloride)]
Cholesterol-free [1, 4]: 0.9791 | Complete [1, 5]: 1.232 | Difference [1, 19]: 0.25 | Cholesterol-free media + simvastatin (0.04 μM) [2, 17]: 0.442 | Complete Media [2, 18]: 1.031 | Difference [2, 14]: 0.59

COC(=O)/C=C/C(=O)OCCN1C(=O)CCC1=O [Diroximel fumarate]
Difference [1, 3]: −0.30 | Cholesterol-free [1, 15]: 1.046 | Complete ([1]; NCI-H292 cells, complete media): 0.7458 | Cholesterol-free media + simvastatin (0.04 μM) [2, 17]: 0.9299 | Complete Media [2, 18]: 1.101 | Difference [2, 14]: 0.17

CC(C)OC(=O)OCOP(=O)(CO[C@H](C)Cn1cnc2c(N)ncnc21)OCOC(=O)OC(C)C [Tenofovir (Disoproxil)]
Difference [1, 9]: −0.65 | Cholesterol-free [1, 10]: 1.348 | Complete [1, 11]: 0.7009 | Cholesterol-free media + simvastatin (0.04 μM) [2, 6]: 1.242 | Complete Media [2, 7]: 0.9076 | Difference [2, 8]: −0.33

CC(=O)[C@H]1CC[C@H]2[C@@H]3C[C@H](C)C4=CC(=O)CC[C@]4(C)[C@H]3[C@@H](O)C[C@]12C [Medrysone]
Cholesterol-free [1, 4]: 0.895 | Complete [1, 5]: 1.283 | Difference [1, 19]: 0.39 | Cholesterol-free media + simvastatin (0.04 μM) [2, 20]: 1.51 | Complete Media [2, 21]: 1.254 | Difference [2, 8]: −0.26

O=C(O)/C=C/c1ccc(Cn2ccnc2)cc1 [Ozagrel]
Difference [1, 3]: −0.04 | Cholesterol-free [1, 4]: 1.079 | Complete [1, 5]: 1.034 | Cholesterol-free media + simvastatin (0.04 μM) [2, 17]: 1.504 | Complete Media [2, 18]: 1.942 | Difference [2, 14]: 0.44

N#CC(c1ccc(Cl)cc1)c1c(Cl)cc(-n2ncc(=O)[nH]c2=O)cc1Cl (stereo not shown) [Diclazuril]
Cholesterol-free [1, 4]: 0.7362 | Complete [1, 5]: 1.131 | Difference [1, 19]: 0.39 | Cholesterol-free media + simvastatin (0.04 μM) [2, 17]: 1.052 | Complete Media [2, 18]: 0.9766 | Difference [2, 8]: −0.08

CSc1nc2cc(Cl)c(Oc3cccc(Cl)c3Cl)cc2[nH]1 [Triclabendazole]
Difference [1, 9]: −0.64 | Cholesterol-free [1, 10]: 1.673 | Complete [1, 11]: 1.028 | Complete Media [2, 18]: 1.193 | Difference [2, 14]: 0.25

Triamcinolone (acetonide)
Difference [1, 3]: −0.04 | Cholesterol-free [1, 4]: 0.5663 | Complete [1, 5]: 0.5288 | Cholesterol-free media + simvastatin (0.04 μM) [2, 22]: 0.6359 | Complete Media [2, 23]: 0.588 | Difference [2, 24]: −0.05

COc1ccc(CCN(C)CCCC(C#N)(c2ccc(OC)c(OC)c2)C(C)C)cc1OC (stereo not shown) [Verapamil (hydrochloride)]
Cholesterol-free [1]: 0.9873 | Complete [1]: 0.8558 | Difference [1]: −0.13 | Cholesterol-free media + simvastatin (0.04 μM) [2]: 1.071 | Complete Media [2]: 1.013 | Difference [2]: −0.06

O=C1c2cccc3c2[C@H](CCC3)CN1[C@@H]1CN2CCC1CC2 [Palonosetron (Hydrochloride)]
Cholesterol-free [1, 15]: 1.075 | Complete ([1]; NCI-H292 cells, complete media): 0.7009 | Difference [1, 16]: −0.37 | Cholesterol-free media + simvastatin (0.04 μM) [2, 20]: 1.184 | Complete Media [2, 21]: 0.927 | Difference [2, 8]: −0.26

OC(CCN1CCCCC1)(c1ccccc1)C1CCCCC1 (stereo not shown) [Trihexyphenidyl (hydrochloride)]
Cholesterol-free [1, 15]: 1.407 | Complete ([1]; NCI-H292 cells, complete media): 0.9676 | Difference [1, 16]: −0.44 | Cholesterol-free media + simvastatin (0.04 μM) [2, 20]: 0.9099 | Complete Media [2, 21]: 0.6915 | Difference [2, 8]: −0.22

COC(=O)CCC(=O)CN [Methyl aminolevulinate (hydrochloride)]
Difference [1, 9]: −0.59 | Cholesterol-free [1, 10]: 1.473 | Complete [1, 11]: 0.886 | Cholesterol-free media + simvastatin (0.04 μM) [2, 17]: 1.272 | Complete Media [2, 18]: 1.627 | Difference [2, 14]: 0.35

CN(C)CCOC(=O)COc1ccc(Cl)cc1 [Meclofenoxate (hydrochloride)]
Difference ([1]; Complete minus Cholesterol-free, […]): −0.28 | Cholesterol-free [1, 15]: 1.499 | Complete ([1]; NCI-H292 cells, complete media): 1.221 | Cholesterol-free media + simvastatin (0.04 μM) [2, 22]: 1.001 | Complete Media [2, 23]: 0.9764 | Difference ([2]; complete media minus cholesterol-free media + simvastatin (0.04 μM), […]): −0.02

CCN[C@H]1CN(CCCOC)S(=O)(=O)c2sc(S(N)(=O)=O)cc21 [Brinzolamide]
Difference [1, 3]: 0.00 | Cholesterol-free [1, 4]: 0.8738 | Complete [1, 5]: 0.876 | Cholesterol-free media + simvastatin (0.04 μM) [2, 12]: 1.105 | Complete Media [2, 13]: 1.197 | Difference [2, 14]: 0.09

Cc1cc(S(=O)(=O)O)c2c(C)ccc(C(C)C)cc1-2 [Sodium gualenate]
Difference ([1]; Complete minus Cholesterol-free, greater than 0 enhanced anti-cancer activity, about 0 neutral, below 0 antagonist): −0.12 | Cholesterol-free ([1]; NCI-H292 cells, FDA drug library screen, cholesterol-free media without statin): 0.9704 | Complete [1, 18]: 0.8542 | Cholesterol-free media + simvastatin (0.04 μM) [2, 22]: 0.8796 | Complete Media [2, 23]: 0.8094 | Difference [2, 24]: −0.07
